One experiment has as its system A549 cells. In words: A549 proliferation (viability) assay, Cell Titer Fluor, 72 hours. It is filed as cell-based. The conditions noted are these: Homo sapiens. In a few lines: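 Fluorescence read-out (Cell Titer Fluor, 30 min at 37 °C after reagent) after 72 h compound exposure of A549 cells; EC50 by four-parameter logistic curve fit. Cells: 1000/well, RPMI 1640 + 10% dialyzed FBS, 0.5% DMSO final.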

For experiment [1], the target named is T1, GLS1 (purified recombinant human GAC) (Homo sapiens, UniProt O94925).
T1 sequence (O94925 55-598 isoform O94925-3 limits assumed): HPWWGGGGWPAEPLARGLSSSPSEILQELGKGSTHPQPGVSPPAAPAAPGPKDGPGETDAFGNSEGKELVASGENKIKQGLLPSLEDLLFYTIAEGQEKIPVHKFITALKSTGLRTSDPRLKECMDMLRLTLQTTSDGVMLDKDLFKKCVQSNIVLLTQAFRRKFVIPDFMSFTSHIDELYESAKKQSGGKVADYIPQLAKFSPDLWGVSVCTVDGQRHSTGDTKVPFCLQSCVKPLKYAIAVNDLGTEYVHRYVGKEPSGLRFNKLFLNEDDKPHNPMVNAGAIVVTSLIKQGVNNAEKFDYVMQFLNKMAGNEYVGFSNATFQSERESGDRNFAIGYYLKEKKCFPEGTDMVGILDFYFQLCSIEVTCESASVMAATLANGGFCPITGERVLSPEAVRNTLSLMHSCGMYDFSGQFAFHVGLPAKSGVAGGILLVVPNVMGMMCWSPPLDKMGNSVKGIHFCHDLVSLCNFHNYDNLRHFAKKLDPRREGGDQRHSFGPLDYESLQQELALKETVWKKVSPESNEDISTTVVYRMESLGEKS
Briefly: GLS1 enzymatic activity assay (dual-coupled, Amplex UltraRed/resorufin). The experiment is classed as biochemical. The procedure, abridged: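 In this coupled fluorometric format, phosphate-activated GAC (2 nM, 50 mM phosphate) is pre-exposed to compound for 10 min before 1 mM glutamine addition. Product is tracked as resorufin (530/590 nm) over time or at 20 min, and potency is derived by logistic fitting.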

Structures are written as SMILES.

In the case of `CC(C)NC(=O)Nc1ccn(CCCCc2ccc(NC(=O)Cc3ccccc3)nn2)c(=O)n1` [Example 87, N-{6-[4-(2-oxo-4-{[(propan-2-yl)carbamoyl]amino}-1,2-dihydropyrimidin-1-yl)butyl]pyridazin-3-yl}-2-phenylacetamide], in the experiment with A549 cells, the concentration for a half-maximal effect (EC50) (commonly the concentration that produces a half-maximal response) was > 5000 nM. Also, the IC50 (as a rule, the midpoint of a concentration-inhibition curve) in experiment [1] fell in the range of 500 to 5000 nM.

Compound `O=C(Cc1ccccc1)Nc1ccc(CCCCn2ccc(NC(=O)NC3CCCCC3)nc2=O)nn1` [Example 88, N-[6-(4-{4-[(cyclohexylcarbamoyl)amino]-2-oxo-1,2-dihydropyrimidin-1-yl}butyl)pyridazin-3-yl]-2-phenylacetamide] gave an EC50 with A549 cells of 500 to 5000 nM. In addition, in experiment [1], the IC50 lay in the range of 100 to 500 nM.

For `C[C@@H](NC(=O)Nc1ccn(CCCCc2ccc(NC(=O)Cc3ccccc3)nn2)c(=O)n1)c1ccccc1` [Example 89, N-(6-{4-[2-oxo-4-({[(1R)-1-phenylethyl]carbamoyl}amino)-1,2-dihydropyrimidin-1-yl]butyl}pyridazin-3-yl)-2-phenylacetamide], the EC50 in the experiment with A549 cells was > 5000 nM. For the same compound, the half-maximal inhibitory concentration (IC50) in experiment [1] lay in the range of 100 to 500 nM.

With `C[C@H](NC(=O)Nc1ccn(CCCCc2ccc(NC(=O)Cc3ccccc3)nn2)c(=O)n1)c1ccccc1` [Example 90, N-(6-{4-[2-oxo-4-({[(1S)-1-phenylethyl]carbamoyl}amino)-1,2-dihydropyrimidin-1-yl]butyl}pyridazin-3-yl)-2-phenylacetamide], in the experiment on A549 cells, the EC50 was > 5000 nM. Also, the concentration for half-maximal inhibition (IC50) in experiment [1] was 100 to 500 nM.

With `O=C(Cc1cccc(OC(F)(F)F)c1)Nc1ccn(CCCCn2ccc(NC(=O)Cc3cccc(OC(F)(F)F)c3)nc2=O)c(=O)n1` [Example 91, N-{2-oxo-1-[4-(2-oxo-4-{2-[3-(trifluoromethoxy)phenyl]acetamido}-1,2-dihydropyrimidin-1-yl)butyl]-1,2-dihydropyrimidin-4-yl}-2-[3-(trifluoromethoxy)phenyl]acetamide], in the experiment with A549 cells, the EC50 fell in the range of 100 to 500 nM. Also, the IC50 in experiment [1] is < 100 nM.

In turn, `CC(=O)Nc1ccn(CCCCc2ccc(NC(=O)Cc3ccccc3)nn2)c(=O)n1` [Example 92, N-{6-[4-(4-acetamido-2-oxo-1,2-dihydropyrimidin-1-yl)butyl]pyridazin-3-yl}-2-phenylacetamide] showed an EC50 in the experiment with A549 cells of 500 to 5000 nM. Moreover, in experiment [1], the IC50 is < 100 nM.

`COC(=O)Nc1ccn(CCCCc2ccc(NC(=O)Cc3ccccc3)nn2)c(=O)n1` [Example 93, methyl N-(2-oxo-1-{4-[6-(2-phenylacetamido)pyridazin-3-yl]butyl}-1,2-dihydropyrimidin-4-yl)carbamate] yielded a 50% effective concentration (EC50) in the experiment on A549 cells of 500 to 5000 nM. The IC50 in experiment [1] is 100 to 500 nM.

On to `CC(C)OC(=O)Nc1ccn(CCCCc2ccc(NC(=O)Cc3ccccc3)nn2)c(=O)n1` [Example 94, propan-2-yl N-(2-oxo-1-{4-[6-(2-phenylacetamido)pyridazin-3-yl]butyl}-1,2-dihydropyrimidin-4-yl)carbamate], for which the EC50 in the experiment on A549 cells lay within 100 to 500 nM. The IC50 in experiment [1] is < 100 nM.

For `O=C(Cc1ccccc1)Nc1ccc(CCCCn2ccc(NC(=O)OC3CCCCC3)nc2=O)nn1` [Example 95, cyclohexyl N-(2-oxo-1-{4-[6-(2-phenylacetamido)pyridazin-3-yl]butyl}-1,2-dihydropyrimidin-4-yl)carbamate], in the experiment with A549 cells, the concentration for a half-maximal effect (EC50) is < 100 nM. The IC50 in experiment [1] was < 100 nM.

On to `O=C(Cc1ccccc1)Nc1ccc(CCCCn2ccc(NC(=O)OCc3ccccc3)nc2=O)nn1` [Example 96, benzyl N-(2-oxo-1-{4-[6-(2-phenylacetamido)pyridazin-3-yl]butyl}-1,2-dihydropyrimidin-4-yl)carbamate], for which the EC50 in the experiment with A549 cells was 100 to 500 nM. The IC50 in experiment [1] is < 100 nM.

`O=C(Cc1ccccc1)Nc1ccc(CCCCn2ccc(NC(=O)Oc3ccccc3)nc2=O)nn1` [Example 97, phenyl N-(2-oxo-1-{4-[6-(2-phenylacetamido)pyridazin-3-yl]butyl}-1,2-dihydropyrimidin-4-yl)carbamate]: the EC50 in the experiment with A549 cells is > 5000 nM. Besides, the IC50 in experiment [1] lay in the range of 100 to 500 nM.

For `CC(C)COC(=O)Nc1ccn(CCCCc2ccc(NC(=O)Cc3ccccc3)nn2)c(=O)n1` [Example 98, 2-methylpropyl N-(2-oxo-1-{4-[6-(2-phenylacetamido)pyridazin-3-yl]butyl}-1,2-dihydropyrimidin-4-yl)carbamate], in the experiment with A549 cells, the EC50 is 100 to 500 nM. Besides, the IC50 in experiment [1] was < 100 nM.

As to `O=C(Cc1ccccc1)Nc1ccc(CCCCn2ccc(NC(=O)Cc3cccc(OC(F)(F)F)c3)nc2=O)nn1` [Example 99, N-{6-[4-(2-oxo-4-{2-[3-(trifluoromethoxy)phenyl]acetamido}-1,2-dihydropyrimidin-1-yl)butyl]pyridazin-3-yl}-2-phenylacetamide], the EC50 in the experiment on A549 cells was < 100 nM. For the same compound, the IC50 in experiment [1] was < 100 nM.

For `O=C(Cc1ccccc1)Nc1ccc(CCCCn2ccc(NC(=O)[C@H](O)c3ccccc3)nc2=O)nn1` [Example 100, (2R)-2-hydroxy-N-(2-oxo-1-{4-[6-(2-phenylacetamido)pyridazin-3-yl]butyl}-1,2-dihydropyrimidin-4-yl)-2-phenylacetamide], the EC50 in the experiment with A549 cells was in the range of 500 to 5000 nM. For the same compound, the IC50 in experiment [1] is < 100 nM.

The compound `O=C(Cc1cccc(OC(F)(F)F)c1)Nc1ccc(CCCCn2ccc(NC(=O)[C@H](O)c3ccccc3)nc2=O)nn1` [Example 101, (2R)-2-hydroxy-N-{2-oxo-1-[4-(6-{2-[3-(trifluoro-methoxy)phenyl]acetamido}pyridazin-3-yl)butyl]-1,2-dihydropyrimidin-4-yl}-2-phenylacetamide] registered an EC50 with A549 cells of 100 to 500 nM. Further, the IC50 in experiment [1] was < 100 nM.

In the case of `CC(C)OC(=O)Nc1ccn(CCCCc2ccc(NC(=O)Cc3cccc(OC(F)(F)F)c3)nn2)c(=O)n1` [Example 102, propan-2-yl N-{2-oxo-1-[4-(6-{2-[3-(trifluoromethoxy)phenyl]acetamido}pyridazin-3-yl)butyl]-1,2-dihydropyrimidin-4-yl}carbamate], the EC50 in the experiment with A549 cells lay within 100 to 500 nM. The IC50 in experiment [1] was < 100 nM.

For the compound `O=C(Cc1cccc(OC(F)(F)F)c1)Nc1ccc(CCCCn2ccc(NC(=O)OC3CCCCC3)nc2=O)nn1` [Example 103, cyclohexyl N-{2-oxo-1-[4-(6-{2-[3-(trifluoromethoxy)phenyl]acetamido}pyridazin-3-yl)butyl]-1,2-dihydropyrimidin-4-yl}carbamate], the EC50 in the experiment with A549 cells is < 100 nM. The IC50 in experiment [1] is < 100 nM.

For the compound `CC(C)COC(=O)Nc1ccn(CCCCc2ccc(NC(=O)Cc3cccc(OC(F)(F)F)c3)nn2)c(=O)n1` [Example 104, 2-methylpropyl N-{2-oxo-1-[4-(6-{2-[3-(trifluoro-methoxy)phenyl]acetamido}pyridazin-3-yl)butyl]-1,2-dihydropyrimidin-4-yl}carbamate], the EC50 with A549 cells was < 100 nM. For the same compound, in experiment [1], the half-inhibitory concentration (IC50) is < 100 nM.

`O=C(Cc1cccc(OC(F)(F)F)c1)Nc1ccc(CCCCn2ccc(NC(=O)OC3CCOCC3)nc2=O)nn1` [Example 105, oxan-4-yl N-{2-oxo-1-[4-(6-{2-[3-(trifluoromethoxy)phenyl]acetamido}pyridazin-3-yl)butyl]-1,2-dihydropyrimidin-4-yl}carbamate] registered an EC50 with A549 cells of 100 to 500 nM. For the same compound, the IC50 in experiment [1] was < 100 nM.

Take `CC(C)NC(=O)Nc1ccn(CCCCc2ccc(NC(=O)Cc3cccc(OC(F)(F)F)c3)nn2)c(=O)n1` [Example 106, N-{6-[4-(2-oxo-4-{[(propan-2-yl)carbamoyl]amino}-1,2-dihydropyrimidin-1-yl)butyl]pyridazin-3-yl}-2-[3-(trifluoromethoxy)phenyl]acetamide]: the EC50 with A549 cells is 500 to 5000 nM. Moreover, the IC50 in experiment [1] was 100 to 500 nM.

Compound `O=C(Cc1cccc(OC(F)(F)F)c1)Nc1ccc(CCCCn2ccc(NC(=O)NC3CCCCC3)nc2=O)nn1` [Example 107, N-[6-(4-{4-[(cyclohexylcarbamoyl)amino]-2-oxo-1,2-dihydropyrimidin-1-yl}butyl)pyridazin-3-yl]-2-[3-(trifluoromethoxy)phenyl]acetamide] registered a 50% effective concentration (EC50) with A549 cells of 500 to 5000 nM. Moreover, the IC50 in experiment [1] was < 100 nM.

As to `O=C(Cc1cccc(OC(F)(F)F)c1)Nc1ccc(CCCCn2ccc(NC(=O)CC3CCCCC3)nc2=O)nn1` [Example 108, N-(6-{4-[4-(2-cyclohexylacetamido)-2-oxo-1,2-dihydropyrimidin-1-yl]butyl}pyridazin-3-yl)-2-[3-(trifluoromethoxy)phenyl]acetamide], the EC50 with A549 cells is < 100 nM. Also, the IC50 in experiment [1] was < 100 nM.

In the experiment on A549 cells, `O=C(Cc1cccc(OC(F)(F)F)c1)Nc1ccc(CCCCn2ccc(NC(=O)CCN3CCCC3)nc2=O)nn1` [Example 109, N-{2-oxo-1-[4-(6-{2-[3-(trifluoromethoxy)phenyl]acetamido}pyridazin-3-yl)butyl]-1,2-dihydropyrimidin-4-yl}-3-(pyrrolidin-1-yl)propanamide] registered an EC50 of 500 to 5000 nM. The IC50 in experiment [1] was in the range of 100 to 500 nM.

With `CS(=O)(=O)CCC(=O)Nc1ccn(CCCCc2ccc(NC(=O)Cc3cccc(OC(F)(F)F)c3)nn2)c(=O)n1` [Example 110, 3-methanesulfonyl-N-{2-oxo-1-[4-(6-{2-[3-(trifluoro-methoxy)phenyl]acetamido}pyridazin-3-yl)butyl]-1,2-dihydropyrimidin-4-yl}propanamide], the EC50 in the experiment on A549 cells is 100 to 500 nM. The IC50 in experiment [1] was < 100 nM.
